Measurements reported in PubChem BioAssay AID248 (DTP/NCI, 2004).
Where “and” joins values, the source holds several entries; their conditions need not be identical. Identical values can stand only once. Toxic doses and inconclusive results are not listed. Cut-off read from the data, not from the text of the source: active = T/C of 150% or more; inactive = T/C below 125%.

Tested on: L1210 leukemia ip in BDF1 mice, survival T/C
Test: NCI In Vivo Anticancer Drug Screen. Data for tumor model L1210 Leukemia (intraperitoneal) in B6D2F1 (BDF1) mice
Settings: endpoint: mean survival time, higher = longer survival
Outline: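 Value reflects the ratio of survival in compound-treated mice to survival in vehicle-treated controls, with both groups carrying the same transplanted tumor.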

[1] = dose: 75.0 mg/kg/injection, schedule: Q01DX001 (ip), vehicle: other
[2] = dose: 150.0 mg/kg/injection, schedule: Q01DX001 (ip), vehicle: other
[3] = dose: 100.0 mg/kg/injection, schedule: Q01DX009 (ip), vehicle: saline with Tween-80
[4] = dose: 100.0 mg/kg/injection, schedule: Q04DX003 (ip), vehicle: saline with Tween-80
[5] = dose: 200.0 mg/kg/injection, schedule: Q01DX009 (ip), vehicle: saline with Tween-80
[6] = dose: 200.0 mg/kg/injection, schedule: Q04DX003 (ip), vehicle: saline with Tween-80
[7] = dose: 400.0 mg/kg/injection, schedule: Q01DX009 (ip), vehicle: saline with Tween-80
[8] = dose: 400.0 mg/kg/injection, schedule: Q04DX003 (ip), vehicle: saline with Tween-80
[9] = dose: 100.0 mg/kg/injection, schedule: Q04DX003 (ip), vehicle: saline
[10] = dose: 200.0 mg/kg/injection, schedule: Q04DX003 (ip), vehicle: saline
[11] = dose: 100.0 mg/kg/injection, schedule: Q01DX001 (ip), vehicle: saline
[12] = dose: 50.0 mg/kg/injection, schedule: Q01DX009 (ip), vehicle: saline with Tween-80
[13] = dose: 200.0 mg/kg/injection, schedule: Q01DX001 (ip), vehicle: saline
[14] = dose: 400.0 mg/kg/injection, schedule: Q01DX001 (ip), vehicle: saline
[15] = dose: 100.0 mg/kg/injection, schedule: Q04DX003 (ip), vehicle: Klucel (hydroxypropylcellulose) (HPC)
[16] = dose: 200.0 mg/kg/injection, schedule: Q04DX003 (ip), vehicle: Klucel (hydroxypropylcellulose) (HPC)
[17] = dose: 400.0 mg/kg/injection, schedule: Q04DX003 (ip), vehicle: Klucel (hydroxypropylcellulose) (HPC)

Measured: T/C

CC(C)(C(Cl)Cl)S(=O)(=O)O (tested in a mixture with another compound)
inactive: dose: 9.0 mg/kg/injection, schedule: Q01DX001 (ip), vehicle: other 95 % of control | dose: 18.0 mg/kg/injection, schedule: Q01DX001 (ip), vehicle: other 106 % of control | dose: 37.0 mg/kg/injection, schedule: Q01DX001 (ip), vehicle: other 103 % of control | [1] 98 % of control | dose: 75.0 mg/kg/injection, schedule: Q01DX009 (ip), vehicle: saline with Tween-80 107 % of control | dose: 75.0 mg/kg/injection, schedule: Q04DX003 (ip), vehicle: other 111 % of control | [2] 101 % of control | dose: 150.0 mg/kg/injection, schedule: Q01DX009 (ip), vehicle: saline with Tween-80 105 % of control | dose: 150.0 mg/kg/injection, schedule: Q04DX003 (ip), vehicle: other 118 % of control | dose: 300.0 mg/kg/injection, schedule: Q01DX001 (ip), vehicle: other 113 % of control | dose: 300.0 mg/kg/injection, schedule: Q01DX009 (ip), vehicle: saline with Tween-80 102 % of control | dose: 300.0 mg/kg/injection, schedule: Q04DX003 (ip), vehicle: other 116 % of control

CC=NC(C[S-])C(=O)O.CC=NC(C[S-])C(=O)O.[Fe+2] (centres undefined)
inactive: [3] 92 % of control | [4] 94 % of control | [5] 91 % of control | [6] 93 % of control | [7] 87 % of control | [8] 88 % of control

Cn1cnc2c(C(F)(F)F)nc(N)nc21
inactive: [9] 94 % of control | [10] 102 % of control

CCC(CC)N=C(N)N
inactive: [9] 93 % of control

CCCCCCC(C)N(C)CCOC(=O)c1ccc([N+](=O)[O-])cc1 (centres undefined)
inactive: [1] 101 % of control | [2] 106 % of control

CCOC(=O)c1c(C)[nH]c2c1C(=O)C(=O)C=C2
inactive: [11] 90 % of control

C#CC1(OCC(CCl)OC(N)=O)CCCCC1 (centres undefined)
inactive: dose: 25.0 mg/kg/injection, schedule: Q01DX009 (ip), vehicle: saline with Tween-80 105 % of control | dose: 25.0 mg/kg/injection, schedule: Q04DX003 (ip), vehicle: saline with Tween-80 105 % of control | [12] 105 % of control | dose: 50.0 mg/kg/injection, schedule: Q04DX003 (ip), vehicle: saline with Tween-80 95 % of control | [3] 102 % of control | [4] 101 % of control | [5] 105 % of control | [6] 100 % of control | [7] 97 % of control | [8] 86 % of control

O=c1[nH]cccc1CCc1ccccc1
inactive: [11] 103 % of control | [13] 105 % of control | [14] 111 % of control

NC(=O)C(CC(=O)OCc1ccccc1)NC(=O)OCc1ccccc1 (centres undefined)
inactive: [3] 92 % of control | [5] 90 % of control | [7] 97 % of control

O=[N+]([O-])c1c(Cl)ccc2c(Cl)ccnc12
inactive: dose: 100.0 mg/kg/injection, schedule: Q04DX003 (ip), vehicle: gum acacia 111 % of control | dose: 200.0 mg/kg/injection, schedule: Q04DX003 (ip), vehicle: gum acacia 91 % of control

COc1cc(OC)c2c(C)c(C#N)oc2c1
inactive: [15] 97 % of control | [16] 97 % of control | [17] 98 % of control

CCCCCCCCCCCCCCCC(C1CCCC1)C1CCCC1
inactive: dose: 75.0 mg/kg/injection, schedule: Q01DX001 (ip), vehicle: saline with Tween-80 99 % of control | dose: 150.0 mg/kg/injection, schedule: Q01DX001 (ip), vehicle: saline with Tween-80 97 % of control | dose: 300.0 mg/kg/injection, schedule: Q01DX001 (ip), vehicle: saline with Tween-80 101 % of control

COc1ccc(C)cc1NC(=O)OCCOc1ccc(C(C)(C)C)cc1
inactive: [12] 90 % of control | [3] 90 % of control | [5] 90 % of control

O=C(Nc1cccc(C(=O)O)c1)Nc1cccc(C(F)(F)F)c1
inactive: dose: 100.0 mg/kg/injection, schedule: Q01DX009 (ip), vehicle: Klucel (hydroxypropylcellulose) (HPC) 86 % of control | dose: 200.0 mg/kg/injection, schedule: Q01DX009 (ip), vehicle: Klucel (hydroxypropylcellulose) (HPC) 86 % of control

Nc1nc(N)c(-c2ccccc2)c(C=O)n1
inactive: [4] 110 % of control | [6] 117 % of control | [8] 110 % of control

CC(=O)/C=C\c1ccc(Cl)cc1
inactive: [11] 106 % of control | [13] 98 % of control | [14] 106 % of control

N#CCCCN1C(=O)c2ccccc2S1(=O)=O
inactive: dose: 44.0 mg/kg/injection, schedule: Q01DX Z (ip), vehicle: methylcellulose (MC) 98 % of control | dose: 66.0 mg/kg/injection, schedule: Q01DX Z (ip), vehicle: methylcellulose (MC) 120 % of control | dose: 100.0 mg/kg/injection, schedule: Q01DX Z (ip), vehicle: methylcellulose (MC) 98 % of control

NC(=O)NC(=O)Nc1ccccc1
inactive: dose: 100.0 mg/kg/injection, schedule: Q04DX002 (ip), vehicle: saline 96 % of control | dose: 200.0 mg/kg/injection, schedule: Q04DX002 (ip), vehicle: saline 96 % of control | dose: 400.0 mg/kg/injection, schedule: Q04DX002 (ip), vehicle: saline 111 % of control

O=C(CF)CCl
inactive: dose: 0.87 mg/kg/injection, schedule: Q01DX009 (ip), vehicle: Klucel (hydroxypropylcellulose) (HPC) 102 % of control | dose: 1.75 mg/kg/injection, schedule: Q01DX009 (ip), vehicle: Klucel (hydroxypropylcellulose) (HPC) 105 % of control | dose: 3.5 mg/kg/injection, schedule: Q01DX009 (ip), vehicle: Klucel (hydroxypropylcellulose) (HPC) 110 % of control | dose: 14.0 mg/kg/injection, schedule: Q04DX003 (ip), vehicle: saline 96 % of control | dose: 28.0 mg/kg/injection, schedule: Q04DX003 (ip), vehicle: saline 112 % of control

O=C(CSc1ccccc1)NCc1cnccn1
inactive: dose: 100.0 mg/kg/injection, schedule: Q01DX009 (ip), vehicle: saline 103 % of control | [9] 92 % of control | dose: 200.0 mg/kg/injection, schedule: Q01DX009 (ip), vehicle: saline 102 % of control | [10] 105 % of control | dose: 400.0 mg/kg/injection, schedule: Q04DX003 (ip), vehicle: saline 105 % of control

NNc1ccccc1
inactive: [11] 105 % of control | [13] 111 % of control

O=[N+]([O-])c1cc(Cl)cc(Br)c1O
inactive: dose: 12.5 mg/kg/injection, schedule: Q04DX003 (ip), vehicle: Klucel (hydroxypropylcellulose) (HPC) 100 % of control | dose: 25.0 mg/kg/injection, schedule: Q04DX003 (ip), vehicle: Klucel (hydroxypropylcellulose) (HPC) 102 % of control | dose: 50.0 mg/kg/injection, schedule: Q04DX003 (ip), vehicle: Klucel (hydroxypropylcellulose) (HPC) 105 % of control | [15] 103 % of control

N#CCCNc1cccc(Cl)c1
inactive: [15] 94 % of control | [16] 109 % of control | [17] 96 % of control

CC(C)CCC(C)C1CCC2C3CC([N+](=O)[O-])=C4CC(OC(=O)c5ccccc5)CCC4(C)C3CCC12C (centres undefined)
inactive: [3] 103 % of control | [5] 90 % of control | [7] 90 % of control

O=C(O)CCCCCN1C(=O)C2CC=CCC2C1=O (centres undefined)
inactive: dose: 6.0 mg/kg/injection, schedule: Q04DX002 (ip), vehicle: saline with Tween-80 106 % of control | dose: 12.5 mg/kg/injection, schedule: Q04DX002 (ip), vehicle: saline with Tween-80 91 % of control | dose: 25.0 mg/kg/injection, schedule: Q04DX002 (ip), vehicle: saline with Tween-80 98 % of control | dose: 50.0 mg/kg/injection, schedule: Q04DX002 (ip), vehicle: saline with Tween-80 102 % of control

Cc1nc2ccccc2n1C
inactive: [3] 107 % of control

Cc1ccc2cc(-c3ccc(C4CCCCC4)cc3)c(N=O)n2c1
inactive: dose: 50.0 mg/kg/injection, schedule: Q01DX001 (ip), vehicle: carboxymethylcellulose (CMC) 93 % of control | dose: 100.0 mg/kg/injection, schedule: Q01DX001 (ip), vehicle: carboxymethylcellulose (CMC) 96 % of control | dose: 200.0 mg/kg/injection, schedule: Q01DX001 (ip), vehicle: carboxymethylcellulose (CMC) 90 % of control | dose: 400.0 mg/kg/injection, schedule: Q01DX001 (ip), vehicle: carboxymethylcellulose (CMC) 90 % of control

CC1(C)N=C(N)N=C(N)N1c1cccc(OCCC#N)c1
inactive: dose: 25.0 mg/kg/injection, schedule: Q04DX003 (ip), vehicle: saline 112 % of control | dose: 50.0 mg/kg/injection, schedule: Q04DX003 (ip), vehicle: saline 108 % of control | [9] 100 % of control and 104 % of control
